Among the test systems are A549 NSCLC; HCT-116 colon; HT29 colon; KM12 colon; SN12C renal; SNB-19 CNS; TK-10 renal; UO-31 renal; ACHN renal; MDA-MB-231 breast.
What all share (test): NCI-60 cell line screen, 48 h

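48-hour exposure; five concentrations; linearly interpolated endpoints. At the TGI there is no net growth.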 A value given as a limit tells only on which side of the number the result lay.

For the compound `Cc1ccnc(NC(=S)Nc2cccc(Cl)c2)c1`, the TGI in the assay with A549 NSCLC, with HCT-116 colon, with HT29 colon, in the assay on KM12 colon, in the assay with SN12C renal and in the assay with SNB-19 CNS was > 100 µM each time. In addition, the TGI in the assay with TK-10 renal and in the assay with UO-31 renal was > 100 µM in each case.
`COP(=O)(OC)C(NC=O)P(=O)(OC)OC`: the TGI in the assay with A549 NSCLC, with ACHN renal, in the assay on HCT-116 colon, in the assay with HT29 colon, with MDA-MB-231 breast and with SN12C renal was > 100 µM throughout. In addition, the TGI in the assay on SNB-19 CNS, in the assay on TK-10 renal and with UO-31 renal was > 100 µM each time.
As for `CC(=O)Nc1ccc(C(=O)N2N=C(C)/C(=C/c3cccc([N+](=O)[O-])c3)C2=O)cc1`, the TGI in the assay on A549 NSCLC, in the assay on ACHN renal, in the assay on HCT-116 colon, with HT29 colon, with KM12 colon and with SN12C renal was > 100 µM each time. Moreover, the TGI with SNB-19 CNS, in the assay with TK-10 renal and in the assay on UO-31 renal was > 100 µM throughout.
Regarding `CC(C)=Nn1cnc(C(=N)C#N)c1N`, the TGI in the assay on A549 NSCLC, in the assay on ACHN renal, in the assay with HCT-116 colon, in the assay on HT29 colon, in the assay with SNB-19 CNS and in the assay with TK-10 renal was > 100 µM throughout. In the assay on UO-31 renal, the TGI is > 100 µM.
As for `CCC(=O)NC(OCC1(CC)COC1)(C(F)(F)F)C(F)(F)F`, the TGI with ACHN renal, with HCT-116 colon, with HT29 colon, with KM12 colon, in the assay with MDA-MB-231 breast and in the assay on SN12C renal was > 100 µM throughout. The TGI in the assay on SNB-19 CNS, in the assay with TK-10 renal and in the assay with UO-31 renal was > 100 µM in each case.
Take `Cc1ccc(SC[C@@]2(C(F)F)NC(=O)NC2=O)cc1`: the TGI in the assay with A549 NSCLC, in the assay on ACHN renal, in the assay with HCT-116 colon, in the assay on HT29 colon, with KM12 colon and in the assay with MDA-MB-231 breast was > 100 µM each time. The TGI in the assay on SNB-19 CNS, in the assay with TK-10 renal and in the assay with UO-31 renal was > 100 µM throughout.
Take `C=CCC1(CC)C(=O)NC(=O)NC1=O`: the TGI in the assay on A549 NSCLC, in the assay on ACHN renal, in the assay with HCT-116 colon, with KM12 colon, with SN12C renal and with SNB-19 CNS was > 100 µM each time. Besides, the TGI in the assay with TK-10 renal and with UO-31 renal was > 100 µM in each case.
Regarding `COc1cc2c(cc1C)NC(=O)/C2=C\c1ccncc1`, the TGI was 66.5 µM in the assay on A549 NSCLC; 20.2 µM in the assay on ACHN renal; 5.09 µM with HCT-116 colon; > 100 µM in the assay on HT29 colon; 12.5 µM in the assay with KM12 colon; 20.9 µM in the assay with SN12C renal. Also, the figures for the TGI in the assay on SNB-19 CNS, in the assay on TK-10 renal and in the assay on UO-31 renal were 21.6 µM, 21.4 µM and 18.3 µM, respectively.
Consider `CSc1nc(C#N)c(N)n1C`, for which the TGI in the assay on A549 NSCLC, in the assay with ACHN renal, with HCT-116 colon, in the assay with KM12 colon, in the assay with MDA-MB-231 breast and in the assay with SN12C renal was > 100 µM in each case. For the same compound, the TGI in the assay on SNB-19 CNS, in the assay with TK-10 renal and in the assay on UO-31 renal was > 100 µM each time.
On to `O=S1(=O)C(c2ccccc2)=C(O)c2ccccc21`, for which the TGI with A549 NSCLC, in the assay with ACHN renal, with HCT-116 colon, in the assay with HT29 colon, with KM12 colon and in the assay with MDA-MB-231 breast was > 100 µM throughout. The TGI with SNB-19 CNS, in the assay on TK-10 renal and in the assay with UO-31 renal was > 100 µM each time.
As for `C/C=C/[C@H]1O[C@@](O)([C@@H](C)[C@H](O)[C@H](C)[C@H]2OC(=O)/C(OC)=C/C(C)=C/[C@@H](C)[C@@H](O)[C@@H](CC)[C@@H](O)[C@H](C)C/C(C)=C/C=C/[C@@H]2OC)C[C@H](OC2CC(O)C(OC(N)=O)C(C)O2)[C@@H]1C` (some centres not stated), the TGI in the assay on A549 NSCLC is 17.7 µM; in the assay on ACHN renal it was 16.7 µM; in the assay on HCT-116 colon, 14 µM; with HT29 colon, 1.59 µM; in the assay on KM12 colon, 17.4 µM; in the assay with MDA-MB-231 breast, 22.7 µM. Moreover, the TGI with SN12C renal is 23.5 µM; in the assay on SNB-19 CNS, 23.7 µM; in the assay with TK-10 renal, 31.7 µM.
Take `COc1cccc(NC(=O)CC(=O)NNCC(=O)Nc2nnc(-c3ccc(N(CCC#N)S(=O)(=O)c4ccccc4)cc3)s2)c1`: the TGI in the assay on A549 NSCLC, in the assay with ACHN renal, in the assay on HCT-116 colon, with KM12 colon, in the assay on SN12C renal and in the assay with SNB-19 CNS was > 100 µM each time. Further, the TGI in the assay on TK-10 renal and in the assay on UO-31 renal was > 100 µM each time.
For the compound `CN(/N=N/c1nc[nH]c1C(N)=O)C1CCCCC1`, the TGI in the assay with A549 NSCLC, in the assay with ACHN renal, in the assay with HCT-116 colon, in the assay on HT29 colon, with KM12 colon and in the assay on SN12C renal was > 100 µM throughout. For the same compound, the TGI in the assay on SNB-19 CNS and with TK-10 renal was > 100 µM each time.
Take `Cc1cc(S(=O)(=O)Nc2nc3ccccc3n2-c2ccccc2)c(S)cc1Cl`: the TGI with A549 NSCLC, with ACHN renal, in the assay on HCT-116 colon, in the assay on KM12 colon, with MDA-MB-231 breast and in the assay with SNB-19 CNS was > 100 µM in each case. Moreover, the TGI in the assay on UO-31 renal was > 100 µM.
`CCOC(=O)c1c(NCc2ccccc2)n(-c2ccccc2)c(=S)n(-c2ccccc2)c1=O`: the TGI in the assay on A549 NSCLC, with ACHN renal, with HT29 colon, in the assay with KM12 colon, in the assay with MDA-MB-231 breast and in the assay with SN12C renal was > 100 µM in each case. The TGI in the assay with SNB-19 CNS, with TK-10 renal and with UO-31 renal was > 100 µM each time.

The values are drawn from PubChem BioAssay (NCI).
